According to patent publication US8389721B2, “Solubilized topoisomerase poisons” (Rutgers, The State University of New Jersey, priority 2001, dated 2013):
Where two headings read alike, the source gives them in different places.

Assays:
CPT-K5 = experiment: MTT-microtiter plate tetrazolinium cytotoxicity assay (Test B), camptothecin-resistant variant; assay type: cell-based; conditions: Homo sapiens
Experimental: (§1) Test B. Inhibition of Cell Growth: MTT-Microtiter Plate Tetrazolinium Cytotoxicity Assay (RPMI 8402, CPT-K5, U937, U937/CR Cells)
(§2) The cytotoxicity is determined using the MTT-microtiter plate tetrazolinium cytotoxicity assay (MTA), see Chen A. Y. et al. Cancer Res. 1993, 53, 1332; Mosmann, T. J., J. Immunol. Methods 1983, 65, 55; and Carmichael, J. et al. Cancer Res. 1987, 47, 936. The human lymphoblast RPMI 8402 and its camptothecin-resistant variant cell line, CPT-K5 were provided by Dr. Toshiwo Andoh (Anchi Cancer Research Institute, Nagoya, Japan), see Andoh, T.; Okada, K, Adv. in Pharmacology 1994, 29B, 93. Human U-937 myeloid leukemia cells and U-937/CR cells were described by Rubin et al., J. Biol. Chem., 1994, 269, 2433-2439. The cytotoxicity assay is performed by using 96-well microtiter plates using 2000 cells/well, in […] of growth medium. Cells are grown in suspension at 37° C. in 5% CO2 and maintained by regular passage in RPMI medium supplemented with 10% heat-inactivated fetal bovine serum, L-glutamine (2 mM), penicillin (100 U/mL), and streptomycin (0.1 mg/mL). For determination of IC50, cells are exposed continuously for 3-4 days to varying concentrations of drug, and MTT assays were performed at the end of the fourth day. […] All assays are performed at least twice in 6 replicate wells. All assays are performed under the direction of Dr. L. F. Liu, Department of Pharmacology, The University of Medicine and Dentistry of New Jersey, Robert Wood Johnson Medical School, Piscataway, N.J.

RPMI 8402 = experiment: MTT-microtiter plate tetrazolinium cytotoxicity assay (Test B); assay type: cell-based, human
Experimental: as §1, §2

[1] = camptothecin-resistant variant cell line CPT-K5, continuous exposure 3-4 days, MTT, read-out: CPT-K5 IC50 values
[2] = human lymphoblast RPMI 8402 cells, continuous exposure 3-4 days, MTT, read-out: RPMI 8402 [μM] IC50 values

| SMILES | melting point | further results |
| --- | --- | --- |
| CC[C@@]1(O)C(=O)OCc2c1cc1n(c2=O)Cc2cc3ccccc3nc2-1 [Camptothecin] | – | IC50 (CPT-K5; CPT-K5, read-out: CPT-K5 IC50 values): 4.5 µM; IC50 (RPMI 8402; Homo sapiens, RPMI 8402, read-out: RPMI 8402 [μM] IC50 values): 0.002 µM |
| COc1cc2c(=O)n(CCN(C)C)c3c4cc5c(cc4nnc3c2cc1OC)OCO5 [Compound 5, 11,12-dihydro-2,3-dimethoxy-8,9-methylenedioxy-11-[2-(dimethylamino)ethyl]-5,6,11-triazachrysen-12-one] | – | IC50 (CPT-K5; [1]): 1.2 µM; IC50 (RPMI 8402; [2]): 0.003 µM |
| COc1cc2c(=O)n(CC3CCCO3)c3c4cc5c(cc4nnc3c2cc1OC)OCO5 (stereo not drawn) [Example 4, 2,3-Dimethoxy-8,9-methylenedioxy-11-(2-tetrahydrofuranyl)methyl-11H-5,6,11-triazachrysen-12-one] | 300 to 303 °C (dec.) | – |
| COc1cc2c(=O)n(CCN3CCCC3)c3c4cc5c(cc4nnc3c2cc1OC)OCO5 [Example 5, 2,3-Dimethoxy-8,9-methylenedioxy-11-[2-(pyrrolidin-1-yl)ethyl]-11H-5,6,11-triaza-chrysen-12-one] | 229 °C | – |
| COc1cc2c(=O)n(CCN3CCCCC3)c3c4cc5c(cc4nnc3c2cc1OC)OCO5 [Example 6, 2,3-Dimethoxy-8,9-methylenedioxy-11-[2-(piperidin-1-yl)ethyl]-11H-5,6,11-triaza-chrysen-12-one] | 294 to 295 °C | – |
| CCc1c2c(nc3ccc(OC(=O)N4CCC(N5CCCCC5)CC4)cc13)-c1cc3c(c(=O)n1C2)COC(=O)[C@]3(O)CC [Irinotecan] | – | IC50 (CPT-K5; [1]): > 100 µM; IC50 (RPMI 8402; [2]): 0.57 µM |
| CC[C@@]1(O)C(=O)OCc2c1cc1n(c2=O)Cc2cc3c(CN(C)C)c(O)ccc3nc2-1 [Topotecan] | – | IC50 (CPT-K5; [1]): > 10 µM; IC50 (RPMI 8402; [2]): 0.005 µM |

Now from value to molecule, other results behind:

| melting point | SMILES | further results |
| --- | --- | --- |
| 186 to 187 °C | COc1cc2c(=O)n(C(C)CN(C)C)c3c4cc5c(cc4ncc3c2cc1OC)OCO5 (stereo not drawn) [Example 8, 8,9-Dimethoxy-2,3-methylenedioxy-5-[2-(N,N-dimethylamino)-1-methylethyl]-5H-dibenzo[c,h]1,6-naphthyridin-6-one] | – |
| 255 to 257 °C (dec.) | COc1cc2c(=O)n(CCN3CCCC3)c3c4cc5c(cc4ncc3c2cc1OC)OCO5 [Example 9, 8,9-Dimethoxy-2,3-methylenedioxy-5-[2-(pyrrolidin-1-yl)ethyl]-5H-dibenzo[c,h]1,6-naphthyridin-6-one] | – |
| 244 to 246 °C | COc1cc2c(=O)n(CCN3CCN(C)CC3)c3c4cc5c(cc4ncc3c2cc1OC)OCO5 [Example 10, 8,9-Dimethoxy-2,3-methylenedioxy-5-[2-(4-methylpiperazin-1-yl)ethyl]-5H-dibenzo[c,h]1,6-naphthyridin-6-one] | – |
| 262 to 264 °C (dec.) | COc1cc2c(=O)n(CCCN(C)C)c3c4cc5c(cc4ncc3c2cc1OC)OCO5 [Example 11, 8,9-Dimethoxy-2,3-methylenedioxy-5-[3-(N,N-dimethylamino)propyl]-5H-dibenzo[c,h]1,6-naphthyridin-6-one] | – |
| 270 to 273 °C | COc1cc2c(=O)n(CC3CCCO3)c3c4cc5c(cc4ncc3c2cc1OC)OCO5 (stereo not drawn) [Example 12, 8,9-Dimethoxy-2,3-methylenedioxy-5-(2-tetrahydrofuranyl)methyl-5H-dibenzo[c,h]1,6-naphthyridin-6-one] | – |
| 285 to 286 °C | COc1cc2c(=O)n(CCO)c3c4cc5c(cc4ncc3c2cc1OC)OCO5 [Example 13, 8,9-Dimethoxy-2,3-methylenedioxy-5-[2-(hydroxy)ethyl]-5H-dibenzo[c,h]1,6-naphthyridin-6-one] | – |
| 235 °C | COc1cc2c(=O)n(CCOCCO)c3c4cc5c(cc4ncc3c2cc1OC)OCO5 [Example 14, 8,9-Dimethoxy-2,3-methylenedioxy-5-[2-(2-hydroxyethoxy)ethyl]-5H-dibenzo[c,h]1,6-naphthyridin-6-one] | – |
| 271 to 273 °C (dec.) | COc1cc2c(cc1OC)-c1cnc3cc4c(cc3c1N(CCN(C)C)C2)OCO4 [Example 17, 8,9-Dimethoxy-2,3-methylenedioxy-5-[2-(N,N-dimethylamino)ethyl]-5,6-dihydro-dibenzo[c,h]1,6-naphthyridine] | – |
| 153 to 154 °C | COc1cc2c(cc1OC)-c1cnc3cc4c(cc3c1N(C(C)CN(C)C)C2)OCO4 (stereo not drawn) [Example 18, 8,9-Dimethoxy-2,3-methylenedioxy-5-[2-(N,N-dimethylamino)-1-methylethyl]-5,6-dihydro-dibenzo[c,h]1,6-naphthyridine] | – |
| 221 to 223 °C (dec.) | CCN(CC)CCn1c(=O)c2cc(OC)c(OC)cc2c2cnc3cc4c(cc3c21)OCO4 [Example 19, 8,9-Dimethoxy-2,3-methylenedioxy-5-[2-(N,N-diethylamino)ethyl]-5H-dibenzo[c,h]1,6-naphthyridin-6-one] | – |
